Laboratory results reported in US20100197614A1, “TREATMENT OF URINARY TRACT INFECTIONS WITH A MIXTURE OF SAPONIN AND AN ANTIBIOTIC” (priority 2007, published 2010).

Tests used:
[1] = test system: E Coli taken up by human urinary bladder cells (HTB-9); assay: Infection of human bladder cells (HTB-9) with E Coli; surviving intracellular bacteria counted as CFU after gentamicin exposure; type: cell-based, Escherichia coli; conditions: HTB-9 infected 1 or 2 hours, then 100.0 μg/ml gentamicin for 2 hours
Description: Human bladder cells were cultured and thereafter infected with bacteria. In brief, human urinary bladder cells (HTB-9 from American tissue culture collection) were cultured in culture medium and CO2 incubator at 37° C. until the actual experiment took place. Culturing of human cells is familiar for any skilled person in this field of biology. Next, different concentrations of E Coli were added to the human bladder cells. The bladder cells and the bacteria were allowed to incubate for 1 or 2 hours together before most of the loosely bound and extracellular E Coli cells were removed by washing the bladder cells with PBS (the human bladder cells are attached to the bottom of the cell culture flask). The human bladder cells were exposed to 100.0 μg/ml gentamicin for 2 hours. Gentamicin cannot pass any membrane under normal conditions. As already shown in example 1, this gentamicin treatment kills all bacteria if the gentamicin can get access to the bacteria. Residual gentamicin and dead bacteria were removed again by washing the bladder cells with PBS. A final concentration of 0.1% triton x-100 in phosphate buffered saline was added to destroy all membrane structures of the human cells. […] The degree of expression of bacterial type 1 pili was correlated with the degree of bladder infection as measured by the method explained in example 2. […]

[2] = test system: wild-type E Coli bacteria isolated from UTI patients; assay: Growth (absorption at 600 nm) and CFU survival of E Coli directly exposed to gentamicin in LB; type: cell-based, Escherichia coli
Description: Furthermore, a sample of each bacteria solution at each different gentamicin concentration was transferred to an agar plate in order to test if the bacteria could give any surviving colony forming units (CFU) on an agar plate. The agar plate incubated overnight at 37° C.
FIG. 3, lower panel, no E Coli bacteria could survive being exposed for 2 hours to concentrations of gentamicin higher than approximately 3.1 μg/ml.
Seven different wild-type E Coli bacteria were isolated from UTI patients and were cultured in Luria Broth (LB) medium under static conditions for 2 days. The method for culturing bacteria is familiar for any skilled person in this field of microbiology. The 2 days old bacteria were diluted 100 fold in fresh sterile LB and added different concentrations of gentamicin or no gentamicin (control). Gentamicin was used as representative antibiotic agent. The bacteria were then allowed to re-grow for 2 hours under optimal growth conditions (shaking and at 37° C.) before the actual concentrations of bacteria cell in the LB were measured by determination of the absorption at 600 nm. The absorption of light reflects the number of bacteria. The number of bacteria was expressed relatively to the control preparation without gentamicin. […] Furthermore, a sample of each bacteria solution at each different gentamicin concentration was transferred to an agar plate in order to test if the bacteria survived and could cause formation of colony forming units (CFU) on an agar plate. The agar plate incubated overnight at 37° C.

Question: With gentamicin as the substance, how does the “survival of bacteria taken up by bladder cells after antibiotic treatment (CFU)” value [1] read?
Answer: able to survive the antibiotic treatment

Question: And the “survival of test bacteria on direct exposure” value ([2]; 100.0 μg/ml gentamicin, 2 hours)?
Answer: could not survive

Question: What about the “number of bacteria relative to control without gentamicin (absorption at 600 nm)” value ([2]; 2 hours re-growth with different concentrations of gentamicin) of the same substance?
Answer: reduced at very low concentrations of gentamicin

Question: And the “gentamicin concentration above which no E Coli bacteria could survive (CFU on agar plate)” value ([2]; exposed for 2 hours, LB, 37° C., agar plate overnight)?
Answer: approximately 3.1 μg/ml
